Test results reported in patent publication US20090299044A1 (priority 2006, published 2009).
pIC50: −log10 of the molar value. Bridge positions count the residues as written; N and C are the ends. Square brackets hold non-standard residues; d marks the D form. Peptide text beside a SMILES is read from it. 1Nal = N[C@@H](Cc1cccc2ccccc12)C(=O)O

What was measured:
human Kv1.1 (HEK293) = biological target: T1, human Kv1.1 (HEK293) (Homo sapiens, UniProt Q09470); experiment: cell-based
T1 construct: expressed in transfected cells; host or cells: HEK293

human Kv1.3 (CHO) = biological target: T2, human Kv1.3 (CHO) (Homo sapiens, UniProt P22001); experiment: cell-based
T2 construct: expressed in transfected cells; host or cells: CHO
T2 sequence (P22001 whole entry): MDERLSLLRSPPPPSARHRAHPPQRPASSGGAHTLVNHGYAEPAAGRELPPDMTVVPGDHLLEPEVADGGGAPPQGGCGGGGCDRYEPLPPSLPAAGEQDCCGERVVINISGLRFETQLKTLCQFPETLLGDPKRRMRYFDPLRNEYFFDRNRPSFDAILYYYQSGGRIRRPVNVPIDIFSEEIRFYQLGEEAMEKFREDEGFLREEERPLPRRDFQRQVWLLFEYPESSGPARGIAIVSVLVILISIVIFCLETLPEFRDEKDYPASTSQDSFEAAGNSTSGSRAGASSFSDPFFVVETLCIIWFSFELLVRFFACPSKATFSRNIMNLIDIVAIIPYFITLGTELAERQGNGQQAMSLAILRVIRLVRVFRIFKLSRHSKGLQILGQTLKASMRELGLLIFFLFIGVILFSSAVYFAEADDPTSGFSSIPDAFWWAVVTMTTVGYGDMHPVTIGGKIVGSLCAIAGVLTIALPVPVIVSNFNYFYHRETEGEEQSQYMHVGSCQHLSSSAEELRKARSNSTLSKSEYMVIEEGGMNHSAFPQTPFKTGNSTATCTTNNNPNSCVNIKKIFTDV

T1 sequence (Q09470 whole entry): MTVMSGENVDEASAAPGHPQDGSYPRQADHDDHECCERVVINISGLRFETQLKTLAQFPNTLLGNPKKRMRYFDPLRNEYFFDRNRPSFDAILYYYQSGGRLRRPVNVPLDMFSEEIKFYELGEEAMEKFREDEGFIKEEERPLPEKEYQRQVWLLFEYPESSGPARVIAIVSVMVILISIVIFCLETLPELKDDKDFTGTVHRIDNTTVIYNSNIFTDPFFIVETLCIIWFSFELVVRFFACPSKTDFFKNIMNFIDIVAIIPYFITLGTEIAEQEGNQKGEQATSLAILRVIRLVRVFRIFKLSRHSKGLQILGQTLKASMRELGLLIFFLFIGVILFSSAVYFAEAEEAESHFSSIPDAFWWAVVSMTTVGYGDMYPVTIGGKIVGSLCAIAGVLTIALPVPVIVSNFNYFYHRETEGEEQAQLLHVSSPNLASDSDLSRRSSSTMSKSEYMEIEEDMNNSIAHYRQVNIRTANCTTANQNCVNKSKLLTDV

SMILES	pIC50 (human Kv1.1 (HEK293))	pIC50 (human Kv1.3 (CHO))
CC[C@H](C)[C@H](NC(=O)[C@@H](NC(=O)CN)C(C)C)C(=O)N[C@H](C(=O)N[C@@H](CC(N)=O)C(=O)N[C@H](C(=O)N[C@@H](CCCCN)C(=O)N[C@H]1CSSC[C@@H]2NC(=O)[C@H](CCCCN)NC(=O)CNC(=O)[C@H](Cc3ccccc3)NC(=O)[C@H](CCCNC(=N)N)NC(=O)[C@H](CCSC)NC(=O)CNC(=O)[C@H](C)NC(=O)[C@H](CCCCN)NC(=O)[C@H](CCCCN)NC(=O)[C@@H]3CSSC[C@@H](C(=O)N[C@H](C(=O)N4CCC[C@H]4C(=O)N[C@@H](CCCCN)C(=O)O)[C@@H](C)O)NC(=O)[C@H](Cc4c[nH]cn4)NC(=O)[C@H](CSSC[C@H](NC(=O)[C@H](CCC(N)=O)NC(=O)[C@H](CCCNC(=N)N)NC(=O)[C@H](CO)NC(=O)[C@H](CCC(=O)O)NC(=O)[C@H](CCCCN)NC1=O)C(=O)N[C@@H](CC(C)C)C(=O)N[C@@H](CCC(=O)O)C(=O)N1CCC[C@H]1C(=O)N3)NC(=O)[C@H](CCCCN)NC(=O)CNC(=O)[C@H](CC(N)=O)NC(=O)[C@H](CCSC)NC2=O)C(C)C)[C@@H](C)CC [I10E] (H-GVIINVKCKESRQCLEPCKKAGMRFGKCMNGKCHCTPK-OH; disulfide 8-28, 14-33, 18-35)	10.47	9.92
CC[C@H](C)[C@H](NC(=O)[C@@H](NC(=O)CN)C(C)C)C(=O)N[C@H](C(=O)N[C@@H](CC(N)=O)C(=O)N[C@H](C(=O)N[C@@H](CCCCN)C(=O)N[C@H]1CSSC[C@@H]2NC(=O)[C@H](CCCCN)NC(=O)CNC(=O)[C@H](Cc3ccccc3)NC(=O)[C@H](CCCNC(=N)N)NC(=O)[C@H](CCSC)NC(=O)CNC(=O)[C@H](C)NC(=O)[C@H](CCCCN)NC(=O)[C@H](CCCCN)NC(=O)[C@@H]3CSSC[C@@H](C(=O)N[C@H](C(=O)N4CCC[C@H]4C(=O)N[C@@H](CCCCN)C(=O)O)[C@@H](C)O)NC(=O)[C@H](Cc4c[nH]cn4)NC(=O)[C@H](CSSC[C@H](NC(=O)[C@H](CCC(N)=O)NC(=O)[C@H](CCCNC(=N)N)NC(=O)[C@H](CO)NC(=O)[C@H](CCCNC(=N)N)NC(=O)[C@H](CCCCN)NC1=O)C(=O)N[C@@H](CC(C)C)C(=O)N[C@@H](CCC(=O)O)C(=O)N1CCC[C@H]1C(=O)N3)NC(=O)[C@H](CCCCN)NC(=O)CNC(=O)[C@H](CC(N)=O)NC(=O)[C@H](CCSC)NC2=O)C(C)C)[C@@H](C)CC [I10R] (H-GVIINVKCKRSRQCLEPCKKAGMRFGKCMNGKCHCTPK-OH; disulfide 8-28, 14-33, 18-35)	11.76	10.93
CC[C@H](C)[C@@H]1NC(=O)[C@H](CCCCN)NC(=O)[C@@H](NC(=O)[C@H](C)NC(=O)[C@@H](NC(=O)[C@H](CC(N)=O)NC(=O)[C@@H](NC(=O)[C@@H](NC(=O)[C@@H](NC(=O)CN)C(C)C)[C@@H](C)CC)[C@@H](C)CC)C(C)C)CSSC[C@@H]2NC(=O)[C@H](CCCCN)NC(=O)CNC(=O)[C@H](Cc3ccccc3)NC(=O)[C@H](CCCNC(=N)N)NC(=O)[C@H](CCSC)NC(=O)CNC(=O)[C@H](C)NC(=O)[C@H](CCCCN)NC(=O)[C@H](CCCCN)NC(=O)[C@@H]3CSSC[C@@H](C(=O)N[C@H](C(=O)N4CCC[C@H]4C(=O)N[C@@H](CCCCN)C(=O)O)[C@@H](C)O)NC(=O)[C@H](Cc4c[nH]cn4)NC(=O)[C@H](CSSC[C@H](NC(=O)[C@H](CCC(N)=O)NC(=O)[C@H](CCCNC(=N)N)NC(=O)[C@H](CO)NC1=O)C(=O)N[C@@H](CC(C)C)C(=O)N[C@@H](CCC(=O)O)C(=O)N1CCC[C@H]1C(=O)N3)NC(=O)[C@H](CCCCN)NC(=O)CNC(=O)[C@H](CC(N)=O)NC(=O)[C@H](CCSC)NC2=O [K7A] (H-GVIINVACKISRQCLEPCKKAGMRFGKCMNGKCHCTPK-OH; disulfide 8-28, 14-33, 18-35)	10.66	9.74
CC[C@H](C)[C@@H]1NC(=O)[C@H](CCCCN)NC(=O)[C@@H](NC(=O)[C@H](CCC(=O)O)NC(=O)[C@@H](NC(=O)[C@H](CC(N)=O)NC(=O)[C@@H](NC(=O)[C@@H](NC(=O)[C@@H](NC(=O)CN)C(C)C)[C@@H](C)CC)[C@@H](C)CC)C(C)C)CSSC[C@@H]2NC(=O)[C@H](CCCCN)NC(=O)CNC(=O)[C@H](Cc3ccccc3)NC(=O)[C@H](CCCNC(=N)N)NC(=O)[C@H](CCSC)NC(=O)CNC(=O)[C@H](C)NC(=O)[C@H](CCCCN)NC(=O)[C@H](CCCCN)NC(=O)[C@@H]3CSSC[C@@H](C(=O)N[C@H](C(=O)N4CCC[C@H]4C(=O)N[C@@H](CCCCN)C(=O)O)[C@@H](C)O)NC(=O)[C@H](Cc4c[nH]cn4)NC(=O)[C@H](CSSC[C@H](NC(=O)[C@H](CCC(N)=O)NC(=O)[C@H](CCCNC(=N)N)NC(=O)[C@H](CO)NC1=O)C(=O)N[C@@H](CC(C)C)C(=O)N[C@@H](CCC(=O)O)C(=O)N1CCC[C@H]1C(=O)N3)NC(=O)[C@H](CCCCN)NC(=O)CNC(=O)[C@H](CC(N)=O)NC(=O)[C@H](CCSC)NC2=O [K7E] (H-GVIINVECKISRQCLEPCKKAGMRFGKCMNGKCHCTPK-OH; disulfide 8-28, 14-33, 18-35)	> 11.82	10.85
CC[C@H](C)[C@@H]1NC(=O)[C@H](CCCCN)NC(=O)[C@@H](NC(=O)[C@H](Cc2cccc3ccccc23)NC(=O)[C@@H](NC(=O)[C@H](CC(N)=O)NC(=O)[C@@H](NC(=O)[C@@H](NC(=O)[C@@H](NC(=O)CN)C(C)C)[C@@H](C)CC)[C@@H](C)CC)C(C)C)CSSC[C@@H]2NC(=O)[C@H](CCCCN)NC(=O)CNC(=O)[C@H](Cc3ccccc3)NC(=O)[C@H](CCCNC(=N)N)NC(=O)[C@H](CCSC)NC(=O)CNC(=O)[C@H](C)NC(=O)[C@H](CCCCN)NC(=O)[C@H](CCCCN)NC(=O)[C@@H]3CSSC[C@@H](C(=O)N[C@H](C(=O)N4CCC[C@H]4C(=O)N[C@@H](CCCCN)C(=O)O)[C@@H](C)O)NC(=O)[C@H](Cc4c[nH]cn4)NC(=O)[C@H](CSSC[C@H](NC(=O)[C@H](CCC(N)=O)NC(=O)[C@H](CCCNC(=N)N)NC(=O)[C@H](CO)NC1=O)C(=O)N[C@@H](CC(C)C)C(=O)N[C@@H](CCC(=O)O)C(=O)N1CCC[C@H]1C(=O)N3)NC(=O)[C@H](CCCCN)NC(=O)CNC(=O)[C@H](CC(N)=O)NC(=O)[C@H](CCSC)NC2=O [K7Nal] (H-GVIINV[1Nal]CKISRQCLEPCKKAGMRFGKCMNGKCHCTPK-OH; disulfide 8-28, 14-33, 18-35)	> 11.82	10.63
CC[C@H](C)[C@@H]1NC(=O)[C@H](CCCCN)NC(=O)[C@@H](NC(=O)[C@H](CCCNC(=N)N)NC(=O)[C@@H](NC(=O)[C@H](CC(N)=O)NC(=O)[C@@H](NC(=O)[C@@H](NC(=O)[C@@H](NC(=O)CN)C(C)C)[C@@H](C)CC)[C@@H](C)CC)C(C)C)CSSC[C@@H]2NC(=O)[C@H](CCCCN)NC(=O)CNC(=O)[C@H](Cc3ccccc3)NC(=O)[C@H](CCCNC(=N)N)NC(=O)[C@H](CCSC)NC(=O)CNC(=O)[C@H](C)NC(=O)[C@H](CCCCN)NC(=O)[C@H](CCCCN)NC(=O)[C@@H]3CSSC[C@@H](C(=O)N[C@H](C(=O)N4CCC[C@H]4C(=O)N[C@@H](CCCCN)C(=O)O)[C@@H](C)O)NC(=O)[C@H](Cc4c[nH]cn4)NC(=O)[C@H](CSSC[C@H](NC(=O)[C@H](CCC(N)=O)NC(=O)[C@H](CCCNC(=N)N)NC(=O)[C@H](CO)NC1=O)C(=O)N[C@@H](CC(C)C)C(=O)N[C@@H](CCC(=O)O)C(=O)N1CCC[C@H]1C(=O)N3)NC(=O)[C@H](CCCCN)NC(=O)CNC(=O)[C@H](CC(N)=O)NC(=O)[C@H](CCSC)NC2=O [K7R] (H-GVIINVRCKISRQCLEPCKKAGMRFGKCMNGKCHCTPK-OH; disulfide 8-28, 14-33, 18-35)	> 11.82	10.88
CC[C@H](C)[C@@H]1NC(=O)[C@H](C)NC(=O)[C@@H](NC(=O)[C@H](CCCCN)NC(=O)[C@@H](NC(=O)[C@H](CC(N)=O)NC(=O)[C@@H](NC(=O)[C@@H](NC(=O)[C@@H](NC(=O)CN)C(C)C)[C@@H](C)CC)[C@@H](C)CC)C(C)C)CSSC[C@@H]2NC(=O)[C@H](CCCCN)NC(=O)CNC(=O)[C@H](Cc3ccccc3)NC(=O)[C@H](CCCNC(=N)N)NC(=O)[C@H](CCSC)NC(=O)CNC(=O)[C@H](C)NC(=O)[C@H](CCCCN)NC(=O)[C@H](CCCCN)NC(=O)[C@@H]3CSSC[C@@H](C(=O)N[C@H](C(=O)N4CCC[C@H]4C(=O)N[C@@H](CCCCN)C(=O)O)[C@@H](C)O)NC(=O)[C@H](Cc4c[nH]cn4)NC(=O)[C@H](CSSC[C@H](NC(=O)[C@H](CCC(N)=O)NC(=O)[C@H](CCCNC(=N)N)NC(=O)[C@H](CO)NC1=O)C(=O)N[C@@H](CC(C)C)C(=O)N[C@@H](CCC(=O)O)C(=O)N1CCC[C@H]1C(=O)N3)NC(=O)[C@H](CCCCN)NC(=O)CNC(=O)[C@H](CC(N)=O)NC(=O)[C@H](CCSC)NC2=O [K9A] (H-GVIINVKCAISRQCLEPCKKAGMRFGKCMNGKCHCTPK-OH; disulfide 8-28, 14-33, 18-35)	10.39	9.78
CC[C@H](C)[C@@H]1NC(=O)[C@H](CCC(=O)O)NC(=O)[C@@H](NC(=O)[C@H](CCCCN)NC(=O)[C@@H](NC(=O)[C@H](CC(N)=O)NC(=O)[C@@H](NC(=O)[C@@H](NC(=O)[C@@H](NC(=O)CN)C(C)C)[C@@H](C)CC)[C@@H](C)CC)C(C)C)CSSC[C@@H]2NC(=O)[C@H](CCCCN)NC(=O)CNC(=O)[C@H](Cc3ccccc3)NC(=O)[C@H](CCCNC(=N)N)NC(=O)[C@H](CCSC)NC(=O)CNC(=O)[C@H](C)NC(=O)[C@H](CCCCN)NC(=O)[C@H](CCCCN)NC(=O)[C@@H]3CSSC[C@@H](C(=O)N[C@H](C(=O)N4CCC[C@H]4C(=O)N[C@@H](CCCCN)C(=O)O)[C@@H](C)O)NC(=O)[C@H](Cc4c[nH]cn4)NC(=O)[C@H](CSSC[C@H](NC(=O)[C@H](CCC(N)=O)NC(=O)[C@H](CCCNC(=N)N)NC(=O)[C@H](CO)NC1=O)C(=O)N[C@@H](CC(C)C)C(=O)N[C@@H](CCC(=O)O)C(=O)N1CCC[C@H]1C(=O)N3)NC(=O)[C@H](CCCCN)NC(=O)CNC(=O)[C@H](CC(N)=O)NC(=O)[C@H](CCSC)NC2=O [K9E] (H-GVIINVKCEISRQCLEPCKKAGMRFGKCMNGKCHCTPK-OH; disulfide 8-28, 14-33, 18-35)	9.96	10.50
